Read-outs that look alike come from different tables or passages of the source.
What was measured:
NRF2 = NRF2 induction, luciferase activity in AREc32 reporter cells; assay type: cell-based, human; conditions: for EC50: Homo sapiens, read-out: CD (µM) NRF2 Induction; for EC50 / CD (µM) NRF2 Induction: AREc32 cells, 24 h, concentration required to double luciferase activity compared to basal; for fold potentiation of NRF2 induction compared to the corresponding -OMe derivative: 11, 12 vs 10, 14, 15 vs 13
Description: Cells were used from the third to twelfth passage.
AREc32 cells were stably transfected with the plasmid pGL-8xARE that implements 8 copies of the antioxidant response element (ARE) sequences followed by luciferase reporter gen. Therefore, NRF2 induction can be related to the activation of ARE sequences by measuring luciferase activity in terms of luminescence production. For NRF2 induction experiments, cells were plated in 96 white flat bottom well plates (20,000 cells/well). After 24 h, cells were incubated with selected compounds at the desired concentrations in duplicates for 24 h. The Luciferase Assay System (Promega E1500) was used according to provider protocol and luminescence was quantified in an Orion II microplate luminometer (Berthold, Germany). Fold induction of luciferase activity was normalized to basal conditions. Data were expressed as CD values, which means the concentration needed to duplicate the luciferase activity compared to basal conditions. CD values were calculated from dose–response curves fitted by non-linear regression for each compound after logarithmic transformation of the data using GraphPad Prism 8.0 software.

hrMAO-B = target: T1, hrMAO-B (Homo sapiens, UniProt P27338); assay: Inhibition of monoamine oxidase B (Amplex UltraRed, tyramine); assay type: biochemical; conditions: for Selectivity Index (MAO-A/MAO-B): ratio IC50 MAO-A/IC50 MAO-B
T1 construct: purchased Sigma–Aldrich
T1 sequence (P27338 1-520): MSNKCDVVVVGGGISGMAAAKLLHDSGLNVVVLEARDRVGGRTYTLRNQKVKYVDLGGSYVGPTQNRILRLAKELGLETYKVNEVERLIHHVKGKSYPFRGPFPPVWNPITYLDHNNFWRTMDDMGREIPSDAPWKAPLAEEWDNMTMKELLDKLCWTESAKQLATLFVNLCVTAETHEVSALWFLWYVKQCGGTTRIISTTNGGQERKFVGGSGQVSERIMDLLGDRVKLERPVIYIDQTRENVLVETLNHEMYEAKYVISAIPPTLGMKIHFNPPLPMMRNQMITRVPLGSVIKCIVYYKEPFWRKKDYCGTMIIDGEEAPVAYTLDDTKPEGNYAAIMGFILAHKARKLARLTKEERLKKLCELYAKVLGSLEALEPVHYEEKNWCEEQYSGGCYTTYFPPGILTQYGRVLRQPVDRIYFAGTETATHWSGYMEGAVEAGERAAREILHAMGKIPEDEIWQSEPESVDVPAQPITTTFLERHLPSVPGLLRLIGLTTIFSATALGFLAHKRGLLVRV

hrMAO-A = target: T2, hrMAO-A (Homo sapiens, UniProt P21397); assay: Inhibition of monoamine oxidase A (Amplex UltraRed, tyramine); assay type: biochemical
T2 construct: purchased Sigma–Aldrich
T2 sequence (P21397 1-527): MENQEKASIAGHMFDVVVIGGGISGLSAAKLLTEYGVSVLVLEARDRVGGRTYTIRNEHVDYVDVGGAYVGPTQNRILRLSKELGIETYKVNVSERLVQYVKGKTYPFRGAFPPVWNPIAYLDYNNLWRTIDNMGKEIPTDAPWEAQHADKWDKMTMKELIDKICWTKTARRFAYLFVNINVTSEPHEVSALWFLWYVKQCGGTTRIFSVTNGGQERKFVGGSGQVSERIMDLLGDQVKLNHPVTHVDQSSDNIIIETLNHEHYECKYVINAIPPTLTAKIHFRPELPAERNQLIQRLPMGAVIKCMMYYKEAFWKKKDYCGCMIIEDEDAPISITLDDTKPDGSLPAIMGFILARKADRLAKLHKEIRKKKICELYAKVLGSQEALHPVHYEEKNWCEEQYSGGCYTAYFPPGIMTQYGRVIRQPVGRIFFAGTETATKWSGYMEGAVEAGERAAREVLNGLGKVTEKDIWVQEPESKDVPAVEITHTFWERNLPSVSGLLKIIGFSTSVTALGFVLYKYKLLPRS

SH-SY5Y cells [1] = assay: Neuroprotection in SH-SY5Y against rotenone/oligomycin A (MTT); assay type: cell-based, human; conditions: compound 0.1 µM, 24 h pre- and 24 h co-incubation
Description: (§1) Cells were seeded at a density of 60,000 cells/well in 96-well transparent plates for 24 h. Then cells were pre-incubated with the corresponding compound at 0.1 μM. After 24 h, the medium was removed and replaced with 1% (v/v) FBS media containing the corresponding compound at 0.1 µM and the selected toxic stimuli, namely a mixture of rotenone and oligomycin A (R/O; 30/10 μM, respectively; Sigma–Aldrich, Spain) or 6-hydroxydopamine (100 µM; Sigma–Aldrich, Spain). […].

SH-SY5Y cells [2] = assay: Neuroprotection in SH-SY5Y against 6-hydroxydopamine (MTT); assay type: cell-based, human; conditions: 6-OHDA 100 µM; compound 0.1 µM, 24 h pre- and 24 h co-incubation
Description: as §1

SH-SY5Y = conditions: MTT reduction
Description: They were recovered by centrifugation at 800 rpm for 10 min. Cells from the third to twelfth passage were seeded at a density of 80,000 cells/well in 96-well plates for the neuroprotection studies.
(§2) Basal absorbance was set to 100% and results were normalized to basal conditions.
(§3) Cytotoxicity. LD50 values in several cell cultures employed
(§4) Table S2. Cytotoxicity elicited by 10-18 compounds in SH-SY5Y, AREc32 and mixed pr imary glial cultures. Viability was measured as MTT reduction in presence of increasing concentrations of der ivatives. LD50 values were calcula ted from dose-response curves. Data are expr essed as mean ± SEM of at least 3 independent experiments.
(§5) 1.3. PAMPA control compounds (BBB permeability)
(§6) Table S3. Pr ediction of the BBB passive permeability of control compounds

AREc32 = conditions: MTT reduction
Description: AREc32 cells, shared by CR Wolf, were grown in Dulbecco’s modified Eagle medium (DMEM) with GlutaMAX (Gibco, Invitrogen, Madrid, Spain), supplemented with 10% (v/v) filtrated fetal bovine serum (FBS; Gibco, Invitrogen, Madrid, Spain), 1% of antibiotics penicillin-streptomycin, and geneticin (0.8 mg/mL G418; Gibco, Invitrogen, Madrid, Spain). […] They were recovered by centrifugation at 800 rpm for 10 min. Cells were used from the third to twelfth passage.
as §2, §3, §4, §5, §6

[3] = tested on: Mixed primary glial cultures; assay: Cytotoxicity in mixed primary glial cultures (MTT); conditions: MTT reduction
Description: Mixed primary glial cultures were obtained from cerebral cortex of 2–5-day-old Sprague–Dawley rats. Blood vessels and meninges were first removed in Hank’s balanced salt solution (HBSS) and then forebrains were dissociated in DMEM/F12 medium. After mechanical dissociation, filtering, and centrifugation at 800 rpm for 10 min, cells were plated at a density of 30,000 cells/well in DMEM/F12 medium with 20% (v/v) FBS and 1% penicillin/streptomycin (10,000 units). […] After 5 days, medium was substituted by DMEM/F12 medium with 10% (v/v) FBS. Cells were cultured for 7–10 days before treatment.
as §2, §3, §4, §5, §6

[4] = Blood–brain barrier permeation assay (PAMPA); conditions: for PAMPA Prediction: BBB permeability class from Pe
Description: (§7) Briefly, permeability of the compounds was measured at an initial concentration of 100 µM, including positive and negative controls (Supplementary Data; Table S3). […] After 5 min, 180 µL of each compound solution in PBS (10 mM, pH 7.4) was added to determine their ability to pass the membrane (VD). The 96-well acceptor plate (Multiscreen, Millipore Corp., Madrid Spain) was loaded with 180 µL of PBS (VA). Then, the donor filter plate was carefully placed on the acceptor plate to form a sandwich-like system, which was left undisturbed for 4 h at room temperature. After incubation, the donor plate was removed and the absorbance at the maximum absorption wavelength for each compound was recorded in both the acceptor and donor wells (150 µL/well) using a UV plate reader SPECTROstar Nano (BMG Labtech, Ortenberg, Germany). Concentration of the compounds in the donor and acceptor plates and equilibrium concentration were calculated and expressed as permeability (Pe) according the Equation (1). Results are expressed as mean ± standard error of the mean (SEM) of at least three different experiments in duplicate:(1) logPe =log{C×−ln(1−[drug]acceptor/[drug]equilibrium)} where C=(VD×VA/(VD +VA)×Area×Time) .

[5] = tested on: blood-brain barrier (passive diffusion); assay: Blood–brain barrier permeation assay (PAMPA); conditions: PAMPA, pH 7.4
Description: as §7

[6] = Oxygen radical absorbance capacity (ORAC) assay; conditions: Trolox equivalents; AAPH, fluorescein
Description: The ORAC test was performed to evaluate the oxygen free radical scavenger capacity of the compounds. […] Compounds at desired concentrations (0.03, 0.1, 0.3, 1, 3, and 10 µM) were diluted in phosphate-buffered saline (PBS; 10 mM, pH 7.4) at 37 °C and placed in a 96 black flat bottom well plate. […] A fluorescence measurement was done first to determine the basal signal. Then, 25 µL of 2, 2′-azobis-amidinopropane dihydrochloride (AAPH) (12 mM final concentration) was quickly added. All samples were measured in duplicates in three different experiments. […] Results were expressed in terms of Trolox equivalents (T.eq.), obtained by plotting net AUC versus compound concentration, then performing linear regression and normalizing slopes of the compounds considering Trolox as reference.

MAO-B = target: T3, MAO-B (Homo sapiens, UniProt P27338); assay: MAO-B reversibility assay (pre-incubation times); assay type: biochemical; conditions: 0, 15, 30 min pre-incubation at […] IC50
T3 construct: purchased Sigma–Aldrich
T3 sequence (P27338 1-520): T1 sequence (P27338 1-520)

[7] = tested on: blood-brain barrier (passive diffusion); assay: in vitro; conditions: PAMPA, pH 7.4
Description: as §7

[8] = 30 min pre-incubation, 37 °C, read-out: IC50 MAO-B
[9] = 30 min pre-incubation, 37 °C, read-out: IC50 MAO-A

SMILES | EC50 (NRF2) [µM] | fold potentiation of NRF2 induction compared to the corresponding -OMe derivative (NRF2) [fold] | IC50 (hrMAO-B; [8]) [µM] | IC50 (hrMAO-A; [9]) [µM] | R/O (30/10 µM) Protection (%) (SH-SY5Y cells [1]) | 6-OHDA Protection (%) (SH-SY5Y cells [2]) | LD50 (µM) SH-SY5Y (SH-SY5Y) [µM] | LD50 (µM) AREc32 (AREc32) [µM] | LD50 (µM) Mixed primary glial cultures [3] [µM] | PAMPA Pe (10^−6 cm s^−1) ([4]; 100 µM, porcine brain lipid, 4 h, PBS pH 7.4) | PAMPA Prediction [4] | Papp at 4 h, 100 µM [5] [×10⁻⁶ cm/s] | CD (µM) NRF2 Induction (NRF2) | Selectivity Index (MAO-A/MAO-B) (hrMAO-B) | ORAC (T. eq.) [6] [T. eq.] | IC50 (hrMAO-B) [µM] | IC50 (hrMAO-A) [µM] | MAO-B inhibition reversibility (MAO-B) | Papp [7] [×10⁻⁶ cm/s] | MAO isozyme selectivity (hrMAO-B; MAO-B vs MAO-A)
CC(C)(C)c1cc(O)ccc1O [TBHQ, Tert-Butylhydroquinone, reference compound] | 1.82 ± 0.09 | – | – | – | – | – | – | – | – | – | – | – | – | – | – | – | – | – | – | –
C#CCNCCc1c[nH]c2ccc(OC(=O)/C=C/c3ccc(C)cc3)cc12 [Compound 12, 3-(2-(Prop-2-yn-1-ylamino)ethyl)-1H-indol-5-yl-(E)-3-(p-tolyl)acrylate] | 2.99 ± 0.26 | 10 | 3.03 ± 0.27 | 59.1 ± 6 | 53.5 | absence of protection | 11.6 ± 0.90 | 11.1 ± 2.0 | 7.42 ± 1.3 | low Pe value | CNS − (CNS—(low BBB permeability): Pe (10^−6 cm s^−1) < 2.0) | 1.84 ± 0.48 | – | – | – | – | – | – | – | –
C#CC(=O)NCCc1c[nH]c2ccc(OC(=O)/C=C/c3ccc(C)cc3)cc12 [Compound 18, 3-(2-Propiolamidoethyl)-1H-indol-5-yl-(E)-3-(p-tolyl) Acrylate] | – | – | 13.9 ± 1.2 | 81.9 ± 5.4 | 32.1 | 43.8% | – | < 1 | 1.21 ± 0.24 | – | – | 2.04 ± 3.2 | no activity | 5.89 | 1.42 ± 0.13 | – | – | – | – | –
Cn1c(=O)c2c(ncn2C)n(C)c1=O [Caffeine, reference compound] | – | – | – | – | – | – | – | – | – | – | CNS - | – | – | – | – | – | – | – | – | –
C#CCNCCc1c[nH]c2ccc(OC(=O)C=Cc3ccccc3)cc12 [Compound 11, 3-(2-(Prop-2-yn-1-ylamino)ethyl)-1H-indol-5-yl Cinnamate] | 1.8 ± 0.28 | 7 | – | – | 48.6 | absence of protection | 16.4 ± 2.32 | 7.83 ± 1.2 | 17.8 ± 2.9 | – | CNS + (CNS + (high BBB permeability): Pe (10^−6 cm s^−1) > 4.0) | – | – | – | – | 3 ± 0.21 | 43.8 ± 6.5 | reversible inhibition | 5.08 ± 1.7 | –
C#CC(=O)NCCc1c[nH]c2ccc(OC)cc12 [Compound 16, N-(2-(5-Methoxy-1H-indol-3-yl)ethyl) Propiolamide] | 1.35 ± 0.12 | – | > 100 | > 100 | 47.3 | 48.1% | 4.87 ± 0.60 | – | 8.81 ± 2.2 | – | CNS + (CNS + (high BBB permeability): Pe (10^−6 cm s^−1) > 4.0) | 6.64 ± 1.3 | – | at least 2 | 2.67 ± 0.14 | – | – | – | – | not active
C#CC(=O)NCCc1c[nH]c2ccc(OC(=O)C=Cc3ccccc3)cc12 [Compound 17, 3-(2-Propiolamidoethyl)-1H-indol-5-yl Cinnamate] | – | – | 50 ± 2.9 | > 100 | 49.3 | 58.4% | 9.06 ± 0.31 | < 1 | – | – | – | 3.12 ± 1.2 | no activity | – | 2.27 ± 0.08 | – | – | reversible inhibition | – | –

From article PMC8868346, “Novel Series of Dual NRF2 Inducers and Selective MAO-B Inhibitors for the Treatment of Parkinson’s Disease” (Antioxidants, 2022)
